Starred links: 1 amine or outer side, 2 acyl side, 3 side chain; linkers in the order of their positions; H or OH if unused. Positions of bridges follow the written chain, without caps; N, C: chain ends. Non-standard residues stand in square brackets, D forms with d. Residues, ends and D or L forms follow the SMILES beside them. *: point of attachment. X88 = O=C([C@H](CCc1ccc(OC(F)(F)F)c(Cl)c1)N[*:1])[*:2]; X58 = O=C([C@H](CCc1ccc(OC(F)(F)F)c(F)c1)N[*:1])[*:2]; X60 = CC(C)Oc1cc(CC[C@H](N[*:1])C(=O)[*:2])cc(Cl)c1Cl; X57 = N#Cc1cc(CC[C@H](N[*:1])C(=O)[*:2])ccc1C(F)(F)F; X75 = O=C([C@H](CCc1ccc2c(c1)OC(F)(F)O2)N[*:1])[*:2]; X74 = O=C([C@H](CCc1cc(Cl)c(Cl)c(Cl)c1)N[*:1])[*:2]; X16 = Cn1ccc2ccc(CC[C@H](N[*:1])C(=O)[*:2])cc21; X44 = O=C([C@H](CCc1ccc2ncccc2c1)N[*:1])[*:2]; X86 = O=C([C@H](CCc1ccc2occc2c1)N[*:1])[*:2]; NMeGly(cPent) = CN[C@H](C(=O)O)C1CCCC1; NMeCha = CN[C@@H](CC1CCCCC1)C(=O)O; NMeChg = CN[C@H](C(=O)O)C1CCCCC1; NMeD = CN[C@@H](CC(=O)O)C(=O)O; NMeL = CN[C@@H](CC(C)C)C(=O)O; NMeA = CN[C@@H](C)C(=O)O; Piperidide = C1CCN(*)CC1; Ac5c = NC1(C(=O)O)CCCC1; Aze = O=C(O)[C@@H]1CCN1; Sar = CNCC(=O)O
The compounds below were run on Human pancreatic cancer cell line AsPC-1 (assay: Measurement of AsPC-1 cell growth inhibition (AsPC-1 CGI)). Conditions: 96 h.
Type: cell-based
Method in brief: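 AsPC-1 cells in 15% FBS RPMI-1640 were exposed to test compound for 96 hours at 37° C, with CellTiter-Glo as endpoint.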
In the case of `CC[C@H](C)[C@@H]1NC(=O)[C@H](CC(C)C)N(C)C(=O)C[C@@H](C(=O)N2CCCCC2)N(C)C(=O)[C@H](C2CCCC2)N(C)C(=O)C2(CCCC2)NC(=O)[C@@H]2CCCN2C(=O)[C@H](CCc2ccc(OC(F)(F)F)c(Cl)c2)NC(=O)CN(C)C(=O)[C@H](CC2CCCCC2)N(C)C(=O)[C@@H]2CCN2C(=O)[C@H](C)N(C)C1=O` [Compound 2057] ([NMeL]I[NMeA][Aze][NMeCha][Sar][X88]P[Ac5c][NMeGly(cPent)][NMeD]-Piperidide; lactam N-11), the IC50 is reported as 50 to 100 nM.
Work on `CC[C@H](C)[C@@H]1NC(=O)[C@H](C)N(C)C(=O)C[C@@H](C(=O)N2CCCCC2)N(C)C(=O)[C@H](C2CCCCC2)N(C)C(=O)C2(CCCC2)NC(=O)[C@@H]2CCCN2C(=O)[C@H](CCc2cc(Cl)c(Cl)c(Cl)c2)NC(=O)CN(C)C(=O)[C@H](CC2CCCCC2)N(C)C(=O)CN(C)C(=O)CN(C)C1=O` [Compound 2059, (3S,9S,18S,21S,25S,28S,34S)-28-cyclohexyl-9-(cyclohexylmethyl)-7,10,13,16,21,22,26,29-octamethyl-18-[(1S)-1-methylpropyl]-25-(piperidine-1-carbonyl)-3-[2-(3,4,5-trichlorophenyl)ethyl]spiro[1,4,7,10,13,16,19,22,26,29,32-undecazabicyclo[32.3.0]heptatriacontane-31,1′-cyclopentane]-2,5,8,11,14,17,20,23,27,30,33-undecone] ([NMeA]I[Sar][Sar][NMeCha][Sar][X74]P[Ac5c][NMeChg][NMeD]-Piperidide; lactam N-11) yielded an IC50 of 100 to 500 nM.
`CC[C@H](C)[C@@H]1NC(=O)[C@H](C)N(C)C(=O)C[C@@H](C(=O)N2CCCCC2)N(C)C(=O)[C@H](C2CCCCC2)N(C)C(=O)C2(CCCC2)NC(=O)[C@@H]2CCCN2C(=O)[C@H](CCc2cc(Cl)c(Cl)c(OC(C)C)c2)NC(=O)CN(C)C(=O)[C@H](CC2CCCCC2)N(C)C(=O)CN(C)C(=O)CN(C)C1=O` [Compound 2062] ([NMeA]I[Sar][Sar][NMeCha][Sar][X60]P[Ac5c][NMeChg][NMeD]-Piperidide; lactam N-11; C-terminus assumed) was tested, and the IC50 was greater than 500 nM.
`CC[C@H](C)[C@@H]1NC(=O)[C@H](CC(C)C)N(C)C(=O)C[C@@H](C(=O)N2CCCCC2)N(C)C(=O)[C@H](C2CCCC2)N(C)C(=O)C2(CCCC2)NC(=O)[C@@H]2CCCN2C(=O)[C@H](CCc2ccc3occc3c2)NC(=O)CN(C)C(=O)[C@H](CC2CCCCC2)N(C)C(=O)[C@@H]2CCN2C(=O)[C@H](C)N(C)C1=O` [Compound 2063] ([NMeL]I[NMeA][Aze][NMeCha][Sar][X86]P[Ac5c][NMeGly(cPent)][NMeD]-Piperidide; lactam N-11) gave an IC50 of 50 to 100 nM.
Work on `CC[C@H](C)[C@@H]1NC(=O)[C@H](CC(C)C)N(C)C(=O)C[C@@H](C(=O)N2CCCCC2)N(C)C(=O)[C@H](C2CCCC2)N(C)C(=O)C2(CCCC2)NC(=O)[C@@H]2CCCN2C(=O)[C@H](CCc2ccc3ccn(C)c3c2)NC(=O)CN(C)C(=O)[C@H](CC2CCCCC2)N(C)C(=O)[C@@H]2CCN2C(=O)[C@H](C)N(C)C1=O` [Compound 2065] ([NMeL]I[NMeA][Aze][NMeCha][Sar][X16]P[Ac5c][NMeGly(cPent)][NMeD]-Piperidide; lactam N-11) yielded an IC50 of 100 to 500 nM.
Compound `CC[C@H](C)[C@@H]1NC(=O)[C@H](CC(C)C)N(C)C(=O)C[C@@H](C(=O)N2CCCCC2)N(C)C(=O)[C@H](C2CCCC2)N(C)C(=O)C2(CCCC2)NC(=O)[C@@H]2CCCN2C(=O)[C@H](CCc2ccc(OC(F)(F)F)c(F)c2)NC(=O)CN(C)C(=O)[C@H](CC2CCCCC2)N(C)C(=O)[C@@H]2CCN2C(=O)[C@H](C)N(C)C1=O` [Compound 2067] ([NMeL]I[NMeA][Aze][NMeCha][Sar][X58]P[Ac5c][NMeGly(cPent)][NMeD]-Piperidide; lactam N-11) has an IC50 of 20 to 50 nM.
In the case of `CC[C@H](C)[C@@H]1NC(=O)[C@H](CC(C)C)N(C)C(=O)C[C@@H](C(=O)N2CCCCC2)N(C)C(=O)[C@H](C2CCCC2)N(C)C(=O)C2(CCCC2)NC(=O)[C@@H]2CCCN2C(=O)[C@H](CCc2ccc3ncccc3c2)NC(=O)CN(C)C(=O)[C@H](CC2CCCCC2)N(C)C(=O)[C@@H]2CCN2C(=O)[C@H](C)N(C)C1=O` [Compound 2070] ([NMeL]I[NMeA][Aze][NMeCha][Sar][X44]P[Ac5c][NMeGly(cPent)][NMeD]-Piperidide; lactam N-11), the IC50 is reported as greater than 500 nM.
Work on `CC[C@H](C)[C@@H]1NC(=O)[C@H](CC(C)C)N(C)C(=O)C[C@@H](C(=O)N2CCCCC2)N(C)C(=O)[C@H](C2CCCC2)N(C)C(=O)C2(CCCC2)NC(=O)[C@@H]2CCCN2C(=O)[C@H](CCc2ccc(C(F)(F)F)c(C#N)c2)NC(=O)CN(C)C(=O)[C@H](CC2CCCCC2)N(C)C(=O)[C@@H]2CCN2C(=O)[C@H](C)N(C)C1=O` [Compound 2072] ([NMeL]I[NMeA][Aze][NMeCha][Sar][X57]P[Ac5c][NMeGly(cPent)][NMeD]-Piperidide; lactam N-11) yielded an IC50 of 20 to 50 nM.
`CC[C@H](C)[C@@H]1NC(=O)[C@H](CC(C)C)N(C)C(=O)C[C@@H](C(=O)N2CCCCC2)N(C)C(=O)[C@H](C2CCCC2)N(C)C(=O)C2(CCCC2)NC(=O)[C@@H]2CCCN2C(=O)[C@H](CCc2ccc3c(c2)OC(F)(F)O3)NC(=O)CN(C)C(=O)[C@H](CC2CCCCC2)N(C)C(=O)[C@@H]2CCN2C(=O)[C@H](C)N(C)C1=O` [Compound 2074] ([NMeL]I[NMeA][Aze][NMeCha][Sar][X75]P[Ac5c][NMeGly(cPent)][NMeD]-Piperidide; lactam N-11) showed an IC50 of 50 to 100 nM.

Source: US12371454B2, “Cyclic peptide compound having Kras inhibitory action” (priority 2019, dated 2025)
